Measured values taken from article PMC11620517, “Novel hydrazone compounds with broad-spectrum antiplasmodial activity and synergistic interactions with antimalarial drugs” (Antimicrobial Agents and Chemotherapy, 2024).
Like-named read-outs stand apart in the source and are kept apart here.

How the values were obtained:
[1] = test system: P. cynomolgi hypnozoites and hepatic schizonts; assay: P. cynomolgi liver-stage inhibition assay; format: cell-based, Plasmodium cynomolgi; conditions: Plasmodium cynomolgi, prophylactic drug treatment mode
Method: (§1) Primary primate hepatocytes were seeded in 384-well plates and used within 2–4 days ([56]). P. cynomolgi B strain parasites were inoculated and developed into hypnozoites and schizonts. CB compounds were tested in 8-point, threefold serial dilutions (100 µM to […]) for both prophylactic (4 days starting with sporozoite addition) and radical cure (4 days starting day 4 post-inoculation) modalities ([56][–][60]). The Operetta CLS imaging system and Harmony Software 4.9 (Perkin Elmer, Waltham, MA, USA) analyzed the plates, and the percentage of inhibition (PI) was calculated in Python using equation (1), where parasitic quantities (hypnozoite and schizont counts) were normalized to the negative control ([57]). Each plate included negative (DMSO) and positive (KDU691, maduramicin, tafenoquine) controls ([58]). IC50 values were determined using an 8-point, threefold dilution format and a Python-adapted grid algorithm for fitting PI to a four-parameter logistic function ([61]).
PI = 100 ∗(1−(xy/Meanneg))

P. falciparum W2 = assay: Malaria SYBR Green I-Based Fluorescence (MSF) assay, blood stages; format: cell-based; conditions: Plasmodium falciparum, W2; blood stages, 72 hours, CQ resistant strain; read-out: IC50 (µM) (±SD) for strain: W2
Method: (§2) MSF assays were performed in vitro with four P. falciparum strains: D6 (drug sensitive), TM91-C235 (multidrug resistant), W2 (CQ resistant), and C2B (multidrug resistant against ATQ). Parasite strains were kept continuously in long-term cultures as described ([22]). Pre-dosed 384-well plates containing […] serial dilutions of CB compounds (0.0098–20 µM) were prepared using the Tecan Freedom Evo liquid handling system (Tecan USA, Inc., Durham, NC, USA) and were stored at 4°C. A CQ control plate (2,000 ng/mL) was included in each run. Based on modifications of previous methods ([17], [55]), late-ring or early-trophozoite stages were cultured in pre-dosed plates with 0.3% parasitemia and 2% hematocrit. Cultures were incubated for 72 hours at 37°C in a controlled atmosphere of 5% CO2, 5% O2, and 90% N2. Lysis buffer, consisting of 20 mM Tris HCl, 5 mM EDTA, 1.6% Triton X, 0.016% saponin, and SYBR Green I dye at a 20X concentration (Invitrogen #S-7567), was added to the plates for a final 10X SYBR Green concentration. Plates containing cell culture media and lysis buffer were incubated in the dark at 25°C for 24 hours, and the relative fluorescence units (RFU) were measured using the Tecan Genios Plus (Tecan USA, Inc.).

P. falciparum TM91c235 = assay: as above; format: cell-based; conditions: Plasmodium falciparum; blood stages, 72 hours, multidrug resistant strain; read-out: IC50 (µM) (±SD) for strain: TM91c235
Method: as §2

P. falciparum C2B = assay: as above; format: cell-based; conditions: Plasmodium falciparum, 72 h, read-out: IC50 (µM) (±SD) for strain: C2B
Method: as §2

P. falciparum D6 = assay: as above; format: cell-based; conditions: Plasmodium falciparum, D6; blood stages, 72 hours, drug-sensitive strain; read-out: IC50 (µM) (±SD) for strain: D6
Method: as §2

in vitro = conditions: human, HepG2 cells
Method: HepG2 cell viability was assessed using the Cell Proliferation kit with trypan blue exclusion. […] After incubation, a 1.5-mg/mL Cell Proliferation kit solution diluted in complete MEM medium was added to each well, followed by 1-hour dark incubation at 25°C. After aspiration of media and inhibitors, the plates were dried in a hood for 15 minutes, and acidified isopropyl alcohol was added to dissolve formazan dye crystals. The plates were then rotated for 15–30 minutes, and absorbance was determined using a Perkin Elmer Ensight plate reader.

[2] = test system: P. berghei ookinete development (Ookluc parasites); assay: P. berghei ookinete luciferase inhibition assay; format: cell-based, Plasmodium berghei; conditions: dose–response 2.5–75 µM
Method: Mice were pretreated with phenylhydrazine [6 mg/mL, intraperitoneal injection (IP)] 3 days before intravenous injection (IV) infection with P. berghei Ookluc parasites ([19], [62]). Once parasitemia exceeded 15%, the mice received PYR (1 mg/mL, IP) ([19], [62]). Twenty-four hours after PYR treatment, infected mice were assessed for at least 10 exflagellations before blood was collected by heart puncture ([19], [62]). Infected blood (1:20 dilution) was incubated with 8-point serial dilutions (2.5–75 µM) of CB compounds for 24 hours at 19°C with gentle shaking ([62], [64]). Relative luminescence units (RLU) of mature ookinetes were measured using the Promega Nano-Glo Luciferase Assay System Kit and a SpectraMax M3 Microplate Reader (Molecular Devices, San Jose, CA, USA) after 3 minutes. Giemsa blood smears confirmed ookinetes.

[3] = test system: primary primate hepatocytes; assay: hepatocyte toxicity in the P. cynomolgi liver-stage assay; format: cell-based
Method: as §1

[4] = test system: recombinant P. berghei GST; assay: GST inhibition assay (CDNB); format: biochemical, Plasmodium berghei
Method: (§3) Enzymatic activities of recombinant GSTs were determined spectrophotometrically using the chromogenic substrate 1-chloro-2,4-dinitrobenzene (CDNB). Recombinant GST (0.35 mg/mL) was mixed with 1 mM CDNB in 100 mM HEPES. Stock solutions (10 mM) of the CB compounds and hemin were prepared in 100% dimethyl sulfoxide (DMSO) and then diluted at 0.5% DMSO ([14]). Each inhibitor has six concentrations ranging from 1 to 50 µM. The reaction was initiated with 1 mM glutathione (GSH) after 15 minutes. Absorbance change at 340 nm was measured for 1 hour. The slope was converted to micromole per minute using Beer’s equation and the extinction coefficient for the product S-(2,4-dinitrophenyl)glutathione (ε340 nm = 9.6 mM^–1 cm^–1) ([14]). The assay was validated using human placenta GST (#G8642) as a positive control.

human GST = target: T1, human GST (Homo sapiens, UniProt P08263); assay: GST inhibition assay (CDNB); format: biochemical
T1 construct: The open reading frames encoding PfGST, PbGST, and hGST were gene-synthesized; TEV cleavage site (C); Avitag (C); purchased InterRayBio, LLC; host or cells: E. coli BL21 (DE3)
T1 sequence (P08263 1-222): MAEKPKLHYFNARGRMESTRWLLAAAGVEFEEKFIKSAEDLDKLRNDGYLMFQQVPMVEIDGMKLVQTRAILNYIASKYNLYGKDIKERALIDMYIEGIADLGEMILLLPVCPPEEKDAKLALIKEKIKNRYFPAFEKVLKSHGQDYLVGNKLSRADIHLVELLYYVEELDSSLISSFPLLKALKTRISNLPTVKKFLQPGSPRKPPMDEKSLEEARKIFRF
Method: as §3

[5] = target: T2, recombinant P. falciparum GST (Plasmodium falciparum, UniProt Q8ILQ7); assay: GST inhibition assay (CDNB); format: biochemical
T2 construct: The open reading frames encoding PfGST, PbGST, and hGST were gene-synthesized; TEV cleavage site (C); Avitag (C); purchased InterRayBio, LLC; host or cells: E. coli BL21 (DE3)
T2 sequence (Q8ILQ7 1-211): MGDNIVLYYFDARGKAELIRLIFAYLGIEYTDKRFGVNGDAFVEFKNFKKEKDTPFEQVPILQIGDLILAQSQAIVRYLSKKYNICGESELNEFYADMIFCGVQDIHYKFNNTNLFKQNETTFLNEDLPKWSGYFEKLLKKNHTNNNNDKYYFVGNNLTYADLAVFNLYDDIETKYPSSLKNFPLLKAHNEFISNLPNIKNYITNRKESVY
Method: as §3

[6] = test system: P. berghei blood-stage parasites; assay: P. berghei blood-stage isobolograms; format: cell-based, Plasmodium berghei; conditions: LUM in combination with DHA (positive control)
Method: Antimalarial activity and IC50 values of CB-61 and five antimalarial drugs were assessed using the previously described in vitro drug luminescence assay ([14], [68]). Blood-stage isobolograms were performed to confirm synergistic combinations between CB-61 and the five drugs, following established protocols ([69]). Thirty-two-fold IC50 concentrations were used to obtain six concentration ranges for each drug combination, and then they were serially diluted five times ([67]). IC50 scores for each drug alone were determined, and FIC50 values (FIC50 = […]) were calculated and plotted ([70], [71]). The Promega Luciferase Assay System Kit was used to measure mature schizonts’ RLUs, and Giemsa blood smears confirmed the presence of schizonts ([14]).

[7] = test system: P. berghei male gamete activation; assay: Exflagellation assay (male gametocyte activation); format: cell-based, Plasmodium berghei; conditions: 125 nM, positive control
Method: Exflagellation assays were performed to assess the effect of CB compounds on P. berghei male gametocyte activation ([19]). Tail blood from PYR-administered mice was mixed with DMSO, aphidicolin (125 nM), or CB compounds (10 µM) in complete ookinete medium and heparin (30 µg/mL) ([19]). After a 15-minute incubation, the sample was diluted in complete ookinete medium with 10 µM inhibitor and adjusted to a final blood concentration of 1:20. Exflagellations were quantified by counting all events in the middle squares of a hemocytometer. The effect of CB compounds on macrogamete formation was analyzed by flow cytometry using the anti-Pbs21 antibody ([65]). Following PYR administration, infected blood for cardiac puncture was cultured with CB compounds (10 µM) for 2 hours to stimulate gametocyte activation ([66]). Aliquots were then incubated with anti-Pbs21 antibody (1:500) for 1 hour, followed by anti-mouse IgG conjugated Alexa Fluor 594 (1:1,000) for another hour ([65]). Samples were centrifuged (3,000 × g for 3 minutes), pellets were resuspended in phosphate-buffered saline (PBS) and analyzed by flow cytometry (FACSCelesta, FACS Diva Software, BD Biosciences, San Jose, CA, USA) with 1 million events counted per experiment ([66]).

[8] = recombinant GST 0.35 mg/mL, 1–50 µM

Which IC50 ([1]; read-out: Hypnozoite IC50) does the source give for `O=C(Nc1cc(Cl)ccc1O)c1cc2nc(-c3ccccc3)cc(-c3ccccc3)n2n1` [CB-59] here?
Its IC50 is over 10000 nM.

What about the IC50 ([1]; read-out: Schizont IC50) of the same compound?
The IC50 was over 10000 nM.

What about the IC50 ([1]; read-out: Total parasite IC50) of the same compound?
The IC50 was over 10000 nM.

And the IC50 (P. falciparum W2)?
Its IC50 is 0.69 µM.

And the IC50 (P. falciparum TM91c235)?
The IC50 was 2.96 µM.

What about the IC50 (P. falciparum C2B) of the same compound?
The IC50 was 2.91 µM.

What about the IC50 (P. falciparum D6) of the same compound?
The IC50 was 1.73 µM.

What about the IC50 at 48 h (in vitro) of the same compound?
The IC50 at 48 h was over 20000 nM.

What about the “activity in ookinete formation” value [2] of the same compound?
Its value is “no activity”.

What about the Toxicity [3] of the same compound?
Its Toxicity is over 10 µM.

And the GST inhibition ([4]; 6-point 1–50 µM)?
Its GST inhibition is “did not inhibit”.

What about the GST inhibition (human GST; 6-point 1–50 µM) of the same compound?
The GST inhibition was “did not inhibit”.

And the GST inhibition ([5]; 6-point 1–50 µM)?
The GST inhibition was “did not inhibit”.

Which “Mean ΣFIC50” value [6] does the source give for `CCCCN(CCCC)CC(O)c1cc(Cl)cc2c1-c1ccc(Cl)cc1/C2=C/c1ccc(Cl)cc1` (stereo not drawn) [LUM, lumefantrine, reference compound] here?
Its value is 0.74.

Which “number of exflagellation events” value [7] does the source give for `C[C@@]1(CO)[C@H](O)CC[C@@]2(C)[C@H]1CC[C@H]1C[C@@H]3C[C@@]12CC[C@]3(O)CO` [aphidicolin] here?
Its value is under 50%.

For Hemin [reference compound], which IC50 [4, 8] is on record?
The IC50 was 16100 nM.

What about the IC50 (human GST; [8]) of the same compound?
Its IC50 is under 1000 nM.

And the IC50 [5, 8]?
Its IC50 is 1600 nM.
